System: MV-4-11 cells
Assay: Gene expression microarray analysis (Affymetrix PrimeView) and GSEA
Type: cell-based, human
Parameters: RFU PODN (11730768_x_at) / Fold change /veh PODN (11730768_x_at) / RFU LINC00158 (11744669_a_at) / Fold change /veh LINC00158 (11744669_a_at) / RFU DUSP10 (11751237_a_at) / Fold change /veh DUSP10 (11751237_a_at) / RFU ID3 (11757404_x_at) / Fold change /veh ID3 (11757404_x_at) / RFU PLEKHG5 (11737974_s_at) / Fold change /veh PLEKHG5 (11737974_s_at) / RFU LRRC4B (11730491_at) / Fold change /veh LRRC4B (11730491_at) / RFU GIMAP4 (11747438_a_at) / Fold change /veh GIMAP4 (11747438_a_at) / RFU KRT8 (11758183_x_at) / Fold change /veh KRT8 (11758183_x_at) / RFU CNN1 (11734310_a_at) / Fold change /veh CNN1 (11734310_a_at) / RFU VPS37D (11726825_at) / Fold change /veh VPS37D (11726825_at) / RFU C10orf10 (11716522_x_at) / Fold change /veh C10orf10 (11716522_x_at) / RFU KIR2DL2 /// KIR2DL4 /// KIR2DL5A /// KIR2DL5B /// KIR2DS1 /// KIR2DS2 /// KIR2DS3 /// KIR2DS4 /// KIR3DL3 /// KIR3DL3 /// KIR3DS1 (11738374_at) / Fold change /veh KIR2DL2 /// KIR2DL4 /// KIR2DL5A /// KIR2DL5B /// KIR2DS1 /// KIR2DS2 /// KIR2DS3 /// KIR2DS4 /// KIR3DL3 /// KIR3DL3 /// KIR3DS1 (11738374_at) / RFU C1QL1 (11718748_at) / Fold change /veh C1QL1 (11718748_at) / RFU TMPRSS4 (11747572_a_at) / Fold change /veh TMPRSS4 (11747572_a_at) / RFU HAMP (11756126_x_at) / Fold change /veh HAMP (11756126_x_at) / RFU RNFT2 (11725882_a_at) / Fold change /veh RNFT2 (11725882_a_at) / RFU NR4A2 (11747474_a_at) / Fold change /veh NR4A2 (11747474_a_at) / RFU ABCC12 (11746883_a_at) / Fold change /veh ABCC12 (11746883_a_at) / RFU TMEM136 (11760407_x_at) / Fold change /veh TMEM136 (11760407_x_at) / RFU CLDN22 /// WWC2 (11732394_at) / Fold change /veh CLDN22 /// WWC2 (11732394_at) / RFU HLA-DPB1 (11760878_x_at) / Fold change /veh HLA-DPB1 (11760878_x_at) / RFU SPINT1 (11716480_a_at) / Fold change /veh SPINT1 (11716480_a_at) / RFU GAP43 (11754022_s_at) / Fold change /veh GAP43 (11754022_s_at) / RFU A4GNT (11735810_at) / Fold change /veh A4GNT (11735810_at) / RFU PRB3 (11715151_x_at) / Fold change /veh PRB3 (11715151_x_at) / RFU TUBB4B (11761932_at) / Fold change /veh TUBB4B (11761932_at) / RFU CAPN14 (11732068_a_at) / Fold change /veh CAPN14 (11732068_a_at) / RFU TMCC2 (11721928_a_at) / Fold change /veh TMCC2 (11721928_a_at) / RFU IRGQ (11745062_a_at) / Fold change /veh IRGQ (11745062_a_at) / RFU FAM174B (11720279_a_at) / Fold change /veh FAM174B (11720279_a_at) / RFU TMPRSS4 (11748680_a_at) / Fold change /veh TMPRSS4 (11748680_a_at) / RFU FAM212B (11763350_a_at) / Fold change /veh FAM212B (11763350_a_at) / RFU PLEKHG5 (11743358_a_at) / Fold change /veh PLEKHG5 (11743358_a_at) / RFU ZSCAN30 (11745921_a_at) / Fold change /veh ZSCAN30 (11745921_a_at) / RFU CMKLR1 (11741424_a_at) / Fold change /veh CMKLR1 (11741424_a_at) / RFU LOC101060620 /// MAPK8IP1 (11723275_at) / Fold change /veh LOC101060620 /// MAPK8IP1 (11723275_at) / RFU SPTSSB (11747773_x_at) / Fold change /veh SPTSSB (11747773_x_at) / RFU PRSS12 (11739890_at) / Fold change /veh PRSS12 (11739890_at) / RFU BIN1 (11741810_x_at) / Fold change /veh BIN1 (11741810_x_at) / RFU WNT11 (11732464_a_at) / Fold change /veh WNT11 (11732464_a_at) / RFU C10orf10 (11716521_a_at) / Fold change /veh C10orf10 (11716521_a_at) / RFU C5orf56 (11738089_at) / Fold change /veh C5orf56 (11738089_at) / RFU CYB561 (11721691_x_at) / Fold change /veh CYB561 (11721691_x_at) / RFU ANKRD19P (11752326_a_at) / Fold change /veh ANKRD19P (11752326_a_at) / RFU OR2T12 /// OR2T33 /// OR2T8 (11738714_s_at) / Fold change /veh OR2T12 /// OR2T33 /// OR2T8 (11738714_s_at) / RFU VCAN (11748164_a_at) / Fold change /veh VCAN (11748164_a_at) / RFU JSRP1 (11732532_at) / Fold change /veh JSRP1 (11732532_at) / RFU KRTAP10-11 (11738290_x_at) / Fold change /veh KRTAP10-11 (11738290_x_at) / RFU MYO3A (11730013_a_at) / Fold change /veh MYO3A (11730013_a_at) / RFU EBF3 (11725865_a_at) / Fold change /veh EBF3 (11725865_a_at) / RFU CAMK2N1 (11719241_x_at) / Fold change /veh CAMK2N1 (11719241_x_at) / RFU C5orf56 (11738088_a_at) / Fold change /veh C5orf56 (11738088_a_at) / RFU OLFML3 (11715873_a_at) / Fold change /veh OLFML3 (11715873_a_at) / RFU LOC100653217 /// NTM (11731650_a_at) / Fold change /veh LOC100653217 /// NTM (11731650_a_at) / RFU MAPK11 (11762145_a_at) / Fold change /veh MAPK11 (11762145_a_at) / RFU FIZ1 (11724087_x_at) / Fold change /veh FIZ1 (11724087_x_at) / RFU OASL (11726364_x_at) / Fold change /veh OASL (11726364_x_at) / RFU SOX15 (11748057_x_at) / Fold change /veh SOX15 (11748057_x_at) / RFU CD79A (11719716_a_at) / Fold change /veh CD79A (11719716_a_at) / RFU HIST1H1D (11736915_at) / Fold change /veh HIST1H1D (11736915_at) / RFU CASKIN2 (11723855_a_at) / Fold change /veh CASKIN2 (11723855_a_at) / RFU LOC730098 (11760151_x_at) / Fold change /veh LOC730098 (11760151_x_at) / RFU OR4N2 (11742367_at) / Fold change /veh OR4N2 (11742367_at) / RFU PRRT2 (11749266_a_at) / Fold change /veh PRRT2 (11749266_a_at) / RFU SNX32 (11753110_a_at) / Fold change /veh SNX32 (11753110_a_at) / RFU CDHR5 (11726645_a_at) / Fold change /veh CDHR5 (11726645_a_at) / RFU RCAN1 (11760418_a_at) / Fold change /veh RCAN1 (11760418_a_at) / RFU FAM167A (11723789_a_at) / Fold change /veh FAM167A (11723789_a_at) / RFU FAM26E (11764081_at) / Fold change /veh FAM26E (11764081_at) / RFU ISYNA1 (11749810_s_at) / Fold change /veh ISYNA1 (11749810_s_at) / RFU ACY1 (11761880_at) / Fold change /veh ACY1 (11761880_at) / RFU 11764098_at / Fold change /veh 11764098_at / RFU SAMD14 (11745864_x_at) / Fold change /veh SAMD14 (11745864_x_at) / RFU NPB (11741838_a_at) / Fold change /veh NPB (11741838_a_at) / RFU TMPRSS6 (11731388_a_at) / Fold change /veh TMPRSS6 (11731388_a_at) / RFU KRTAP10-2 (11738614_at) / Fold change /veh KRTAP10-2 (11738614_at) / RFU ARHGAP8 /// PRR5-ARHGAP8 (11727945_x_at) / Fold change /veh ARHGAP8 /// PRR5-ARHGAP8 (11727945_x_at) / RFU KRTAP5-7 /// NADSYN1 (11734609_at) / Fold change /veh KRTAP5-7 /// NADSYN1 (11734609_at) / RFU RASL12 (11751679_a_at) / Fold change /veh RASL12 (11751679_a_at) / RFU CDKN2B (11736163_a_at) / Fold change /veh CDKN2B (11736163_a_at) / RFU PRF1 (11729649_at) / Fold change /veh PRF1 (11729649_at) / RFU, ZNF638 /// ZNF638-IT1 / Fold change vs veh, ZNF638 /// ZNF638-IT1 / RFU, PANK3 / Fold change vs veh, PANK3 / RFU, SH3YL1 / Fold change vs veh, SH3YL1 / RFU, ZEB2 / Fold change vs veh, ZEB2 / RFU, NRIP1 / Fold change vs veh, NRIP1 / RFU, PTTG1IP / Fold change vs veh, PTTG1IP / RFU, CAPN2 / Fold change vs veh, CAPN2 / RFU, MED14 / Fold change vs veh, MED14 / RFU, SNORA58 / Fold change vs veh, SNORA58 / RFU, C1orf63 / Fold change vs veh, C1orf63 / RFU, LRRFIP1 / Fold change vs veh, LRRFIP1 / RFU, NDUFAF7 / Fold change vs veh, NDUFAF7 / RFU, SLC12A2 / Fold change vs veh, SLC12A2 / RFU, IBTK / Fold change vs veh, IBTK / RFU, ESF1 / Fold change vs veh, ESF1 / Fold change vs veh, TMEM50B / RFU, TAOK1 / Fold change vs veh, TAOK1 / RFU, ACBD3 / Fold change vs veh, ACBD3 / RFU, TMA16 / Fold change vs veh, TMA16 / RFU, RWDD3 / Fold change vs veh, RWDD3 / RFU, BCAT1 / Fold change vs veh, BCAT1 / RFU, EDEM3 / Fold change vs veh, EDEM3 / RFU, TMEM33 / Fold change vs veh, TMEM33 / RFU, WDR75 / Fold change vs veh, WDR75 / RFU, AHCTF1 / Fold change vs veh, AHCTF1 / RFU, TFRC / Fold change vs veh, TFRC / RFU, ZDHHC17 / Fold change vs veh, ZDHHC17 / RFU, NOM1 / Fold change vs veh, NOM1 / RFU, ARL8B / Fold change vs veh, ARL8B / RFU, ZBTB11 / Fold change vs veh, ZBTB11 / RFU, TAMM41 / Fold change vs veh, TAMM41 / RFU, KIAA1704 /// LOC100996395 / Fold change vs veh, KIAA1704 /// LOC100996395 / RFU, ING1 / Fold change vs veh, ING1 / RFU, TRMT61B / Fold change vs veh, TRMT61B / RFU, FUBP3 / Fold change vs veh, FUBP3 / RFU, TP53 / Fold change vs veh, TP53 / RFU, TNKS2 / Fold change vs veh, TNKS2 / RFU, ZFP14 / Fold change vs veh, ZFP14 / RFU, ACTR2 / Fold change vs veh, ACTR2 / RFU, PPP3R1 / Fold change vs veh, PPP3R1 / RFU, PIK3R1 / Fold change vs veh, PIK3R1 / RFU, HNRNPA1 / Fold change vs veh, HNRNPA1 / RFU, RNF170 / Fold change vs veh, RNF170 / RFU, ZNF28 / Fold change vs veh, ZNF28 / RFU, RNGTT / Fold change vs veh, RNGTT / RFU, OGT / Fold change vs veh, OGT / RFU, BRD1 / Fold change vs veh, BRD1 / RFU, MARS / Fold change vs veh, MARS / RFU, ZNF655 / Fold change vs veh, ZNF655 / RFU, FAHD1 / Fold change vs veh, FAHD1 / RFU, BDP1 / Fold change vs veh, BDP1 / RFU, LRRCC1 / Fold change vs veh, LRRCC1 / RFU, ARID1A / Fold change vs veh, ARID1A / RFU, ZNF146 / Fold change vs veh, ZNF146 / RFU, ZNF330 / Fold change vs veh, ZNF330 / RFU, GPN3 / Fold change vs veh, GPN3 / RFU, C9orf123 / Fold change vs veh, C9orf123 / RFU, N4BP2L2 / Fold change vs veh, N4BP2L2 / RFU, ARFIP1 / Fold change vs veh, ARFIP1 / RFU, FAM179B / Fold change vs veh, FAM179B / RFU, BCL10 / Fold change vs veh, BCL10 / RFU, UHRF1BP1L / Fold change vs veh, UHRF1BP1L / RFU, BET1 / Fold change vs veh, BET1 / RFU, CNOT2 / Fold change vs veh, CNOT2 / RFU, ZNF268 / Fold change vs veh, ZNF268 / Fold change vs veh, ZNF507 / RFU, DGCR2 / Fold change vs veh, DGCR2 / RFU, WDSUB1 / Fold change vs veh, WDSUB1 / Fold change vs veh, HSP90B1 /// MIR3652 / RFU, ADSS / Fold change vs veh, ADSS / RFU, GK / Fold change vs veh, GK / RFU, ZNF148 / Fold change vs veh, ZNF148 / RFU, TAF9 / Fold change vs veh, TAF9 / RFU, SLC1A5 / Fold change vs veh, SLC1A5 / RFU, SLMO2 / Fold change vs veh, SLMO2 / RFU, ABCC4 / Fold change vs veh, ABCC4 / RFU, LOC101060439 /// RAP1B / Fold change vs veh, LOC101060439 /// RAP1B / RFU, RFX7 / Fold change vs veh, RFX7 / RFU, GTPBP10 / Fold change vs veh, GTPBP10 / RFU, CNEP1R1 / Fold change vs veh, CNEP1R1 / RFU, BIVM-ERCC5 /// ERCC5 / Fold change vs veh, BIVM-ERCC5 /// ERCC5 / RFU, ILF3 / Fold change vs veh, ILF3 / RFU 11762660_at / Fold change /veh 11762660_at / RFU VCAN (11757783_s_at) / Fold change /veh VCAN (11757783_s_at) / RFU DDX43 (11728927_at) / Fold change /veh DDX43 (11728927_at) / RFU KRT8 (11758188_x_at) / Fold change /veh KRT8 (11758188_x_at) / RFU NKD1 (11759106_at) / Fold change /veh NKD1 (11759106_at) / RFU SRD5A1 (11742802_a_at) / Fold change /veh SRD5A1 (11742802_a_at) / RFU TPSAB1 /// TPSB2 (11721975_s_at) / Fold change /veh TPSAB1 /// TPSB2 (11721975_s_at) / RFU GSTM3 (11746129_a_at) / Fold change /veh GSTM3 (11746129_a_at) / RFU IL23R (11737362_x_at) / Fold change /veh IL23R (11737362_x_at) / RFU TMEM51 (11727254_a_at) / Fold change /veh TMEM51 (11727254_a_at) / RFU PIWIL2 (11732686_x_at) / Fold change /veh PIWIL2 (11732686_x_at) / RFU ORM1 (11744905_x_at) / Fold change /veh ORM1 (11744905_x_at) / RFU CCDC152 (11743942_at) / Fold change /veh CCDC152 (11743942_at) / RFU ECM1 (11717891_a_at) / Fold change /veh ECM1 (11717891_a_at) / RFU IL23R (11748794_a_at) / Fold change /veh IL23R (11748794_a_at) / RFU TNFAIP8L3 (11732012_x_at) / Fold change /veh TNFAIP8L3 (11732012_x_at) / RFU MBOAT4 (11741988_at) / Fold change /veh MBOAT4 (11741988_at) / RFU 11764193_at / Fold change /veh 11764193_at / RFU TMEM53 (11763286_at) / Fold change /veh TMEM53 (11763286_at) / RFU MAGEB2 (11727129_at) / Fold change /veh MAGEB2 (11727129_at) / RFU TMEM200A (11744735_a_at) / Fold change /veh TMEM200A (11744735_a_at) / RFU CCDC152 (11751479_a_at) / Fold change /veh CCDC152 (11751479_a_at) / RFU FAM211A (11726209_a_at) / Fold change /veh FAM211A (11726209_a_at) / RFU RGS16 (11746705_a_at) / Fold change /veh RGS16 (11746705_a_at) / RFU VCAN (11755009_s_at) / Fold change /veh VCAN (11755009_s_at) / RFU RHOB (11743442_s_at) / Fold change /veh RHOB (11743442_s_at) / RFU RGS16 (11720943_a_at) / Fold change /veh RGS16 (11720943_a_at) / RFU RGS16 (11720944_at) / Fold change /veh RGS16 (11720944_at) / RFU, VPS4B / Fold change vs veh, VPS4B / RFU, CREB1 / Fold change vs veh, CREB1 / RFU, DNAJC13 / Fold change vs veh, DNAJC13 / RFU, GNAQ / Fold change vs veh, GNAQ / RFU, CDK5R1 / Fold change vs veh, CDK5R1 / RFU, ZRANB3 / Fold change vs veh, ZRANB3 / RFU, CUL4A / Fold change vs veh, CUL4A / RFU, CCNY / Fold change vs veh, CCNY / RFU, UFL1 / Fold change vs veh, UFL1 / RFU, COG3 / Fold change vs veh, COG3 / RFU, DIAPH2 / Fold change vs veh, DIAPH2 / RFU, SKA2 / Fold change vs veh, SKA2 / RFU, AFF3 / Fold change vs veh, AFF3 / RFU, LMF1 / Fold change vs veh, LMF1 / RFU, IPO11 / Fold change vs veh, IPO11 / RFU, DFFB / Fold change vs veh, DFFB / RFU, FOXP1 / Fold change vs veh, FOXP1 / RFU, CARD8 / Fold change vs veh, CARD8 / RFU, STRN3 / Fold change vs veh, STRN3 / RFU, ADK / Fold change vs veh, ADK / RFU, RASSF2 / Fold change vs veh, RASSF2 / RFU, WIPF1 / Fold change vs veh, WIPF1 / RFU, LARP1B / Fold change vs veh, LARP1B / RFU, RASA1 / Fold change vs veh, RASA1 / RFU, RB1 / Fold change vs veh, RB1 / RFU, PPFIA1 / Fold change vs veh, PPFIA1 / RFU, MAT2A / Fold change vs veh, MAT2A / RFU, CCT5 / Fold change vs veh, CCT5 / RFU, WDR92 / Fold change vs veh, WDR92 / RFU, CUX1 / Fold change vs veh, CUX1 / RFU, TTC7A / Fold change vs veh, TTC7A / RFU, TMEM135 / Fold change vs veh, TMEM135 / RFU, DEPTOR / Fold change vs veh, DEPTOR / RFU, CPM / Fold change vs veh, CPM / RFU, DNAJB6 / Fold change vs veh, DNAJB6 / RFU, CACNA2D3 / Fold change vs veh, CACNA2D3 / RFU, DTX4 / Fold change vs veh, DTX4 / RFU, TFCP2 / Fold change vs veh, TFCP2 / RFU, GMCL1 /// GMCL1P1 / Fold change vs veh, GMCL1 /// GMCL1P1 / RFU, AEBP2 / Fold change vs veh, AEBP2 / RFU, SNHG1 /// SNORD22 /// SNORD25 /// SNORD26 /// SNORD27 /// SNORD28 /// SNORD29 /// SNORD31 / Fold change vs veh, SNHG1 /// SNORD22 /// SNORD25 /// SNORD26 /// SNORD27 /// SNORD28 /// SNORD29 /// SNORD31 / Fold change (Aza/veh), C12orf56 (ProbeSet 11735607_a_at) / Fold change (ACY-1035/veh), C12orf56 (ProbeSet 11735607_a_at) / Fold change (Aza/veh), FGFR1OP (ProbeSet 11751329_s_at) / Fold change (ACY-1035/veh), FGFR1OP (ProbeSet 11751329_s_at) / Fold change (Aza/veh), VPS36 (ProbeSet 11739960_a_at) / Fold change (ACY-1035/veh), VPS36 (ProbeSet 11739960_a_at) / RFU SYPL1 (11715823_x_at) / Fold change /veh SYPL1 (11715823_x_at) / RFU IGFBP7 (11715501_s_at) / Fold change /veh IGFBP7 (11715501_s_at) / RFU REEP3 (11722064_at) / Fold change /veh REEP3 (11722064_at) / RFU IGLL1 (11728026_x_at) / Fold change /veh IGLL1 (11728026_x_at): dose or concentration left out as unconfirmed
Details: ProbeSet 11745789_a_at; LIST D

Nc1ncn([C@@H]2O[C@H](CO)[C@@H](O)[C@H]2O)c(=O)n1 [azacitidine]
Fold change vs veh, TMEM135: 0.56

Reference: PMC5218480 (PLoS ONE, 2017)
